Reference: paper PMC10439952, “JT002, a small molecule inhibitor of the NLRP3 inflammasome for the treatment of autoinflammatory disorders” (Scientific Reports, 2023)

What was measured:
[1] = system: autocatalytic cleavage of pro-caspase-1 (p45) into the p10 subunit; test: Western blot for caspase-1 p10 in LPS + nigericin stimulated mouse BMDM lysates and supernatants; assay type: cell-based; settings: LPS + nigericin treated mBMDMs, compound 10 µM
Method: BMDMs were activated with LPS and nigericin as described above and were lysed in situ with 50 μL of 4× NuPAGE LDS sample buffer (Fisher Scientific, Hampton, NH) + 5% β-mercaptoethanol and prepared for polyacrylamide gel electrophoresis. Samples were run on NuPAGE Bis–Tris gels (Fisher Scientific, Hampton, NH) and transferred to polyvinylidene difluoride (PVDF) membranes (Fisher Scientific, Hampton, NH) using the iBlot® 2 Dry Blotting System (Fisher Scientific, Hampton, NH). Washed PVDF membranes were blocked and then probed with the following primary antibodies: procaspase-1 + p10 + p12 [EPR16883] (Abcam, Cambridge, MA), β-actin (AC-74, Sigma-Aldrich, St. Louis, MO) and NLRP3 [Cryo-2] (AdipoGen Life Sciences, San Diego, CA). Bound primary antibodies were detected using HRP-labeled secondary antibodies and membranes were imaged with an Azure c300 imager (Azure Biosystems, Dublin, CA). Bands were quantitated using ImageJ software.

[2] = parameters: method as in PMID 26206150; settings: daily dose of 1200 mg; development terminated; cited from earlier work
[3] = system: murine house dust mite model of severe corticosteroid-resistant asthma; parameters: method as in PMID 28528200; settings: i.p. administration; cited from earlier work

For `CCOC(=O)C1=CCCC[C@H]1S(=O)(=O)Nc1ccc(F)cc1Cl` [TAK242, ethyl (6R)-6-[N-(2-Chloro-4-fluorophenyl)sulfamoyl]cyclohex-1-ene-1-carboxylate], which “formation of the caspase-1 p10 subunit (autocatalytic cleavage of pro-caspase-1)” value (“formation of the caspase-1 p10 subunit” below) [1] is on record?
The value was “did not inhibit the autocatalytic cleavage of pro-caspase-1 into the p10 subunit”.

What about the “p10 component in cell supernatants” value [1] of the same molecule?
The value was “appearance of the p10 component in cell supernatants”.

Which “formation of the caspase-1 p10 subunit” value [1] does the source give for `C[C@H](NC(=O)C(=O)Nc1ccccc1C(C)(C)C)C(=O)N[C@@H](CC(=O)O)C(=O)COc1c(F)c(F)cc(F)c1F` [emricasan] here?
Its value is “did not inhibit the autocatalytic cleavage of pro-caspase-1 into the p10 subunit”.

With `CC(C)(O)c1coc(S(=O)(=O)NC(=O)Nc2c3c(cc4c2CCC4)CCC3)c1` [MCC950] as the molecule, how does the “formation of the caspase-1 p10 subunit” value [1] read?
Its value is “blocked formation of the p10 subunit and its release from the cell”.

What about the “liver safety in the clinic” value [2] of the same molecule?
The value was “drug induced liver injury (DILI) detected”.

What about the “bronchoalveolar lavage IL-1β concentrations” value [3] of the same molecule?
Its value is “reduced”.

What about the bronchoalveolar lavage neutrophilia [3] of the same molecule?
Its bronchoalveolar lavage neutrophilia is “reduced”.

And the “development of airway hyperresponsiveness” value [3]?
Its value is “completely prevented”.
